A word on the AC50: it is the midpoint of the concentration-response curve, whichever way the signal moves. A higher AC50 goes with weaker potency.

Assay [1] concerns the target Mu-type opioid receptor (Homo sapiens, UniProt P35372). The experiment in a line: biochemical. The assay is classed as functional.
The target of assay [2] is Cannabinoid receptor 1 (Homo sapiens, UniProt P21554). The assay is classed as functional, cell-based.
The target in assay [3] is T1, Amine oxidase [flavin-containing] A (Homo sapiens, UniProt P21397).
T1 sequence (P21397 whole entry): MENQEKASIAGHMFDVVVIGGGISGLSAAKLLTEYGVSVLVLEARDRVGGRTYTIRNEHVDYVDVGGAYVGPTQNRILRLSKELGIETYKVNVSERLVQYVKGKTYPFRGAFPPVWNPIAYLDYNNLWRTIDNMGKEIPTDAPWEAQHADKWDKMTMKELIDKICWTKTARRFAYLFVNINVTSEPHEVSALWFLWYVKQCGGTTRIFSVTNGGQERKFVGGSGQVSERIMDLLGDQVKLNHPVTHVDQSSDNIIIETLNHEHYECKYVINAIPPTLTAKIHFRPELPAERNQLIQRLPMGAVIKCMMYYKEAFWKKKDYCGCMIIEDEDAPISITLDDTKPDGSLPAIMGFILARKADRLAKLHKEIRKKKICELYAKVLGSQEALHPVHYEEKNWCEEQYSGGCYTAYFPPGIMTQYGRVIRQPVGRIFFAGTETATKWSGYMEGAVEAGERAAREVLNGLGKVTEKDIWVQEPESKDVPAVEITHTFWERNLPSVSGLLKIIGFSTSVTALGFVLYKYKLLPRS
The assay is classed as functional.

Assay [4] has as its target T2, Progesterone receptor (Homo sapiens, UniProt P06401).
T2 sequence (P06401 whole entry): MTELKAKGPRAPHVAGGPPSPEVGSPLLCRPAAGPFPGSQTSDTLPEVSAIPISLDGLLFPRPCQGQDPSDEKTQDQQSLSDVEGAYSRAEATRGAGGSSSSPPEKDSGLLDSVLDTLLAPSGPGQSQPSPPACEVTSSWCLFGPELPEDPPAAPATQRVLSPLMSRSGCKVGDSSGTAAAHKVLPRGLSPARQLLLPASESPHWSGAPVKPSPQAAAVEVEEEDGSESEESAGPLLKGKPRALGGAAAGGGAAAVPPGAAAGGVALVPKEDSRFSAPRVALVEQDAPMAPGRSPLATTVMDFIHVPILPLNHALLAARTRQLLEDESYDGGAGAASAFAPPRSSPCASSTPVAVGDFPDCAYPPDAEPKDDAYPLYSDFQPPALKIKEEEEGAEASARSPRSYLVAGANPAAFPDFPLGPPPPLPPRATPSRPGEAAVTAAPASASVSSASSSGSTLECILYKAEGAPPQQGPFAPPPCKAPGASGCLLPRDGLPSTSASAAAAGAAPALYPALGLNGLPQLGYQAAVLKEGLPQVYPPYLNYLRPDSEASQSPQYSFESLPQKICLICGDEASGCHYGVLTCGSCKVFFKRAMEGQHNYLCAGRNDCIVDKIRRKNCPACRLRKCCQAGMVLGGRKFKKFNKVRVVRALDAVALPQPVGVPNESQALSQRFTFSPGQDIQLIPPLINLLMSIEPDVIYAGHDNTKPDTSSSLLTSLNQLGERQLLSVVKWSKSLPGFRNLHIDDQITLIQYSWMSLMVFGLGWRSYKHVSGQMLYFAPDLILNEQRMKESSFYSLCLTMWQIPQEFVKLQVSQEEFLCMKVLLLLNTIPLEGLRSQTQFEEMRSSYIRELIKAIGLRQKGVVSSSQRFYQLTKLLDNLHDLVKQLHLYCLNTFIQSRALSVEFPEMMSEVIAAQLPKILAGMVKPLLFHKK
The assay is classed as functional.

Assay [5] deals with T3, Alpha-1A adrenergic receptor (Homo sapiens, UniProt P35348).
T3 sequence (P35348 whole entry): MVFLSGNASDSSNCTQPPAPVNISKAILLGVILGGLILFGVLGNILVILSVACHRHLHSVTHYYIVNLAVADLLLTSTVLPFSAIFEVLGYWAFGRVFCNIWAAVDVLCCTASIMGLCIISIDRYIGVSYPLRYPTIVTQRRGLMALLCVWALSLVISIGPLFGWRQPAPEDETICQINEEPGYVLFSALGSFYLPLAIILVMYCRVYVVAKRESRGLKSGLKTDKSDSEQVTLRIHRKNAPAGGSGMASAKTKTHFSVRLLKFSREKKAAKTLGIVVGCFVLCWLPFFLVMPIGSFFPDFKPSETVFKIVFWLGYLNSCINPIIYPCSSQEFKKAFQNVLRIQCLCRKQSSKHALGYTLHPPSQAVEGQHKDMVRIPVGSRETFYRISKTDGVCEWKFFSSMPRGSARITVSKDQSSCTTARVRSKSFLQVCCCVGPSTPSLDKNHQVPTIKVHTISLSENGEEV
The assay is classed as functional, cell-based.

Assay [6] addresses 5-hydroxytryptamine receptor 2A (Homo sapiens, UniProt P28223). It is filed as functional, cell-based.
Assay [7] concerns the target T4, Endothelin-1 receptor (Homo sapiens, UniProt P25101).
T4 sequence (P25101 whole entry): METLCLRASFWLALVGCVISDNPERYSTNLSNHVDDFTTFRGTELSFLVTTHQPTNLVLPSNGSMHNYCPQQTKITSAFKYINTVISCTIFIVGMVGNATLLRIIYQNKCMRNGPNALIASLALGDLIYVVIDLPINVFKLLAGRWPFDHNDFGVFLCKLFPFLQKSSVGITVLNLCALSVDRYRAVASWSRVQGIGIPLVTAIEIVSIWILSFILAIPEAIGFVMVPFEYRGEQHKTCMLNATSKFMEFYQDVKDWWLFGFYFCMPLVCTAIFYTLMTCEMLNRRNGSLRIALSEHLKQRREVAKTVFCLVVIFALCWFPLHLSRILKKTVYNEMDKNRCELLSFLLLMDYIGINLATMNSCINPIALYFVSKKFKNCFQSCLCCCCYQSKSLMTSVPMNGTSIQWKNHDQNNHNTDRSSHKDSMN

Assay [8] has as its target T5, Gastrin/cholecystokinin type B receptor (Homo sapiens, UniProt P32239).
T5 sequence (P32239 whole entry): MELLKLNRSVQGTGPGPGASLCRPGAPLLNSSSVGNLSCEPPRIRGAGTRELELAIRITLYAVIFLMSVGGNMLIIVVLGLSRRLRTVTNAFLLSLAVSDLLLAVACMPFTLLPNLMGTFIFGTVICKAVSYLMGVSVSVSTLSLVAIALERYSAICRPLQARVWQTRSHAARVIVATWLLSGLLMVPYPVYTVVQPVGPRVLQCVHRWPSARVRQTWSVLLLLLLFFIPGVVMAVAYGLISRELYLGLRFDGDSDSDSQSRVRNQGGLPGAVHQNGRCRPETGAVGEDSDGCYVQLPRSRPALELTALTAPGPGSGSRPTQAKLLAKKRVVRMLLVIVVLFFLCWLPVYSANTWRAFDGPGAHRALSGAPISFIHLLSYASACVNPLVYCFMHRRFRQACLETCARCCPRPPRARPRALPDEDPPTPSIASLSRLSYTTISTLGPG
Further: assay procedure not described here.

Chain of Cannabinoid receptor 1 (P21554 whole entry): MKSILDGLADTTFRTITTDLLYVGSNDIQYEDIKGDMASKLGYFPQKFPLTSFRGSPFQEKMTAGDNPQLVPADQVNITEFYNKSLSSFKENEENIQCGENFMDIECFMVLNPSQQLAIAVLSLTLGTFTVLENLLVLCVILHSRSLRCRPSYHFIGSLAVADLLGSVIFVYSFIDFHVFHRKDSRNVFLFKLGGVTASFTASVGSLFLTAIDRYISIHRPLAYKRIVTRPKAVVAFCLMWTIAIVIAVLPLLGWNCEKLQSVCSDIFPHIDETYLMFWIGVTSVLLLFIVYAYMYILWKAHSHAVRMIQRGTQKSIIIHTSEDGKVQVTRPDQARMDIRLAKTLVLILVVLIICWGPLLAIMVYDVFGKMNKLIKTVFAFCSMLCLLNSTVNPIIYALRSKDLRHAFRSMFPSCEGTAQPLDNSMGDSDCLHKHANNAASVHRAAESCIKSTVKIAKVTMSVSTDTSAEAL
Chain of Mu-type opioid receptor (P35372 whole entry): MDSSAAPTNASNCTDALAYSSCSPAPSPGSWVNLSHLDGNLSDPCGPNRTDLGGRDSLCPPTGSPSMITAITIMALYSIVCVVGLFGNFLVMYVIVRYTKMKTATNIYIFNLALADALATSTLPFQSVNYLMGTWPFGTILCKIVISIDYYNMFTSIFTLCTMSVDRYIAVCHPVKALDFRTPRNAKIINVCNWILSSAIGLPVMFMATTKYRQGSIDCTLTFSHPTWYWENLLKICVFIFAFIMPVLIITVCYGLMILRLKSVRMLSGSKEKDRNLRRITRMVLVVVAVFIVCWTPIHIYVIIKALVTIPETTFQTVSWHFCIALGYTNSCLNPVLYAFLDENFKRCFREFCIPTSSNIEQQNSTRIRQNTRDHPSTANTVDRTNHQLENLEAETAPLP
Chain of 5-hydroxytryptamine receptor 2A (P28223 whole entry): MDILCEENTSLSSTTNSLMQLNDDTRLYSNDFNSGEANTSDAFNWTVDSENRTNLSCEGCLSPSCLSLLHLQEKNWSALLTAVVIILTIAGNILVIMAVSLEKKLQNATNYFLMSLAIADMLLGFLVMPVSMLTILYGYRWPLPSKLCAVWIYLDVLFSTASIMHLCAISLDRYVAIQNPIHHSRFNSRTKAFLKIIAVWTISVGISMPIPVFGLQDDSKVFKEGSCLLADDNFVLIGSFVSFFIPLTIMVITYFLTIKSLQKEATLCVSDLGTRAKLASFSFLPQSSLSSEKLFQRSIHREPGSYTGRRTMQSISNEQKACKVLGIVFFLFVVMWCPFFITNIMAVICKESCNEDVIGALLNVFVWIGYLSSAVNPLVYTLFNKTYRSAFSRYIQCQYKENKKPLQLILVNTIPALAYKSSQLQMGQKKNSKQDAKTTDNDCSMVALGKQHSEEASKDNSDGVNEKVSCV

As for `CC(C)OC(=O)CCC/C=C\C[C@@H]1[C@@H](CC[C@@H](O)CCc2ccccc2)[C@H](O)C[C@@H]1O` [LATANOPROST], the AC50 in assay [1], in assay [2], in assay [3], in assay [4], in assay [5] and in assay [6] was over 30 µM each time. The AC50 in assay [7] and in assay [8] was over 30 µM throughout.

In the case of `CN1C(=O)C(O)N=C(c2ccccc2Cl)c2cc(Cl)ccc21` (stereo not given) [LORMETAZEPAM], the AC50 in assay [1], in assay [2], in assay [3], in assay [4], in assay [5] and in assay [6] was over 30 µM throughout. For the same compound, the AC50 in assay [7] and in assay [8] was over 30 µM throughout.

As to `CCC1(CC)C(=O)NCC(C)C1=O` (stereo not given) [METHYPRYLON], the AC50 in assay [1], in assay [2], in assay [3], in assay [4], in assay [5] and in assay [6] was over 30 µM in each case. Also, the AC50 in assay [7] and in assay [8] was over 30 µM in each case.

For the compound `OC(CNCC(O)C1CCc2cc(F)ccc2O1)C1CCc2cc(F)ccc2O1` (stereo not given) [NEBIVOLOL], the AC50 is 3.3 µM in assay [1]; over 30 µM in assay [2]; over 30 µM in assay [3]; over 30 µM in assay [4]; over 30 µM in assay [5]; 7.1 µM in assay [6]. In addition, the AC50 in assay [7] and in assay [8] was over 30 µM throughout.

Turning to `Clc1ccc(CCCOCCCN2CCCCC2)cc1` [PITOLISANT], the half-maximal activity concentration (AC50) in assay [1], in assay [2], in assay [3], in assay [4], in assay [5] and in assay [6] was over 30 µM each time. Besides, the AC50 in assay [7] and in assay [8] was over 30 µM in each case.

For `Cc1ccc(-n2nccn2)c(C(=O)N2CCN(c3nc4cc(Cl)ccc4o3)CC[C@H]2C)c1` [SUVOREXANT], the AC50 in assay [1], in assay [2], in assay [3], in assay [4], in assay [5] and in assay [6] was over 30 µM each time. The AC50 in assay [7] and in assay [8] was over 30 µM in each case.

Regarding `CC(CC(c1ccccc1)c1ccccc1)NC(C)(C)C` (stereo not given) [TERODILINE], the AC50 in assay [1], in assay [2], in assay [3], in assay [4], in assay [5] and in assay [6] was over 30 µM each time. In addition, the AC50 in assay [7] and in assay [8] was over 30 µM in each case.

For the compound `COc1cc2c(N)nc(N3CCN(C(=O)OCC(C)(C)O)CC3)nc2c(OC)c1OC` [TRIMAZOSIN], the AC50 in assay [1], in assay [2], in assay [3], in assay [4], in assay [5] and in assay [6] was over 30 µM in each case. In addition, the concentration at half-maximal activity (AC50) in assay [7] and in assay [8] was over 30 µM throughout.

As to `C=CCN1CCCC1CNC(=O)c1cc(S(N)(=O)=O)cc(OC)c1OC` (stereo not given) [VERALIPRIDE], the AC50 in assay [1] is over 30 µM; in assay [2] it was over 30 µM; in assay [3], over 30 µM; in assay [4], over 30 µM; in assay [5] it was over 30 µM; in assay [6], 24 µM. Further, the AC50 in assay [7] and in assay [8] was over 30 µM each time.

On to `O=C(NCCNCC(O)COc1ccc(O)cc1)N1CCOCC1` (stereo not given) [XAMOTEROL], for which the AC50 in assay [1], in assay [2], in assay [3], in assay [4], in assay [5] and in assay [6] was over 30 µM throughout. In addition, the concentration at half-maximal activity (AC50) in assay [7] and in assay [8] was over 30 µM throughout.

Source of the values: ChEMBL document CHEMBL5291721, “A preclinical secondary pharmacology resource illuminates target-adverse drug reaction associations of marketed drugs” (Nat Commun, 2023).
